These results are taken from US10343903B2, “Cationic polymer coated mesoporous silica nanoparticles and uses thereof” (The Regents of the University of California, priority 2010, dated 2019).

In series [1] the test system is KB-31 cells. In words: MTS cytotoxicity of free Dox, KB-31. The settings on record: KB-31, free Dox, 72 hrs. The series is classed as cell-based. The method, then:
(§1) KB-31 and KB-V1 cells were plated at 1×10^4 cells per well in 96 well plate. The cells were treated with free Dox in solution in doses ranging from 0.05-3.2 μg/ml (KB-31) and 0.1-64 μg/ml (KB-V1) for 72 hrs. The cell viability was determined by the MTS assay. The treated cells were incubated with MTS working solution for 2-3 hrs before measurement. The mean absorbance of non-exposed cells served as the reference value for calculating 100% cellular viability. To view Pgp expression, the cells were washed in PBS and the pellets lysed in a buffer containing Triton X-100 and protease inhibitors after centrifugation. The protein content of the supernatants was determined by the Bradford method. 100 μg total protein was electrophoresed by 10% SOS-PAGE and transferred to a PVDF membrane. After blocking, the membranes were incubated with 1:1000 dilution of primary monoclonal antibody to MDR1 (anti-Pgp C219, Abeam). The membranes were overlayed with goat anti-mouse secondary antibody (1:1000 dilution) before the addition of the HRP-conjugated streptavidin-biotin complex. The proteins were detected using ECL reagent according to the manufacturer's instructions.

A short description of series [2]: Blood biochemistry to assess possible toxicity (Example 8). It is filed as in vivo. The settings on record: serum, tumor-bearing nude mice, weekly i.v. for 3 weeks, day 21. The method, then: (§2) Nude mouse studies to determine the effect of doxorubicin-loaded NP3 on tumor shrinkage. One week after tumor implantation, the KB-31 tumor-bearing mice were randomly divided into four groups of five animals each. These groups were used for comparing the effects of saline, empty nanoparticles, free doxorubicin, and doxorubicin-loaded NP3, respectively. The latter group received intravenous administration of 120 mg/kg (˜2.4 mg per animal) NP3, which is equivalent to a doxorubicin dose of 4 mg/kg (˜0.08 mg per animal), weekly for 3 weeks. The free doxorubicin group received the same drug dose weekly for 3 weeks, while the group receiving empty NP3 was treated with 120 mg/kg on a weekly basis. The fourth group was treated with saline as control. The body weight and tumor size were accurately recorded twice per week. Tumor weight was calculated according to the formula: Tumor weight (mg)=(length in mm)× (width in mm)^2/2 (Meng et al., ACS Nano, vol. 4, pp. 2773-2783, 2010).
Following the animal experiments described above, the mice were sacrificed on 21st day and serum collected by centrifuging the whole blood at 5,000 rpm for 15 min. The biochemical parameters, including cholesterol (CHOL), triglycerides (TRG), alanine aminotransferase (ALT), aspartate aminotransferase (AST), total bilirubin (TBILI), glucose (GLU), inorganic phosphorus (PHOS), total protein (TPR), calcium (CAL), blood urea nitrogen (BUN), creatinine (CRE), and albumin (ALB) were assayed by UCLA Division of Laboratory Animal Medicine (DLAM) diagnostic laboratory services.

Series [3] deals with KB-31 tumor xenograft. In words: Tumor growth inhibition by doxorubicin-loaded NP3. It is filed as in vivo, nude mice. The settings on record: 4 mg/kg doxorubicin i.v. weekly for 3 weeks, tumor weight at sacrifice. As to the method:
Athymic BALB/c nu/nu female mice (6 weeks) were purchased from the Charles River Laboratory, and maintained under pathogen-free conditions. All animal experiments were performed using protocols approved by the UCLA Animal Research Committee. The tumor cell suspension (0.1 ml, 5×10^6 cells/mL) was injected subcutaneously into the mice. To perform imaging, the tumor-bearing animals were used 2.5 weeks after tumor implantation. In the tumor growth inhibition experiments, the nude mice were randomly divided into 4 groups and received the listed range of treatments, which commenced 1 week after tumor implantation.
as §2, with “The free doxorubicin group received the same drug dose weekly for 3 weeks, while the group receiving empty NP3 was treated with 120 mg/kg on a weekly basis. The fourth group was treated with saline as control.” left out

Series [4] in a line: Body weight and major organ histology (Example 8). It is filed as in vivo, nude mice. To be noted: weekly i.v. for 3 weeks. The method, then:
as §2
Appropriate size sections of the tumor, liver, kidney, spleen, lung, heart, and brain were fixed in 10% formalin and then embedded into paraffin. Tissue sections of 4 μm thickness were mounted on glass slides by the UCLA Division of Laboratory Animal Medicine (DLAM) diagnostic laboratory services. The sections were stained with hematoxylin-eosin (H&E) and examined by light microscopy. The slides were read by an experienced veterinary pathologist.

The conditions of series [5]: cited from earlier work.
In series [6] the test system is KB-31 tumor xenograft. As to the kind of experiment: TUNEL staining of the tumor tissue. The settings on record: 4 mg/kg doxorubicin i.v. weekly for 3 weeks. The series is classed as in vivo, nude mice. The method, then: A section of the tumor from each animal was used for TUNEL staining. The slides containing the tumor section were washed, fixed, and permeabilized before performance of TUNEL staining according to the manufacturer's instructions (Invitrogen, Carlsbad, Calif.). Nuclei were stained by Hoechst 33342 dye. The number of TUNEL positive cells (green staining) was assessed under a fluorescent microscope (200×). The same sections were also used for recording of the red fluorescent images of the doxorubicin that was present in the particles or the tissues. At least three fields were counted by the same investigator to calculate the percentage of TUNEL positive cells.

The subject of series [7] is KB-V1 cells. As to the kind of experiment: MTS cytotoxicity of free Dox, KB-V1. It is filed as cell-based. To be noted: 72 hrs. The method, then: as §1
In series [8] the test system is KB-V1 cells. In words: Cytotoxicity of Dox formulations in KB-V1 cells (MTS, 72 hrs). The series is classed as cell-based. The settings on record: KB-V1, Tariquidar 50 nM. As to the method:
To measure cytotoxicity of the different Dox formulations, KB-V1 cells were treated with free Dox, Dox-MSNP, PEI-Dox-MSNP and siRNA-PEI-Dox-MSNP, respectively. For the latter two particle types, incubation time was for 16 hrs before replenishment of the old medium with fresh complete DMEM and performance of a MTS assay at 72 hrs. Based on the absorption readout at 490 nm, the IC50 of free and Dox-loaded MSNP were calculated. The induction of apoptosis at 72 hours was assessed through the use of Annexin V-SYTOX Blue. Briefly, 5×10^5 cells were harvested and stained by FITC-Annexin V-SYTOX Blue working solution (Annexin V, Trevigen; SYTOX Blue, Invitrogen) at room temperature for 15 min. The cells were washed in binding buffer before performance of flow cytometry (Becton Dickinson, Mountain View, Calif.). Date analysis was performed by BD CellQuest. To confirm the flow data in which there may be a minor overlap of Dox with FITC-Annexin V, a TUNEL detection kit was used according to the manufacturer's instructions to confirm the induction of apoptosis. Briefly, 72 hrs following treatment with free Dox or Dox loaded particles, cells were washed, fixed, and permeabilized before TUNEL staining. The number of TUNEL-positive cells was assessed under a fluorescent microscope (200×). At least 3 fields were counted by the same investigator to calculate the percentage of TUNEL positive cells.

The term pKa denotes the pH at which an ionisable group is half protonated. In the case of `COc1cccc2c1C(=O)c1c(O)c3c(c(O)c1C2=O)C[C@@](O)(C(=O)CO)C[C@@H]3O[C@H]1C[C@H](N)[C@H](O)[C@H](C)O1.Cl` [Free Dox, doxorubicin hydrochloride], the “IC50 (MTS)” value in series [1] is 0.21 µg/mL. In series [2], this compound registered an ALB of 2.4 ± 0.2 g/dL, an ALT of 36.8 ± 8.0 u/L, an AST of 347.8 ± 73.9 U/L and a BUN of 17.3 ± 2.6 mg/dL. Besides, in series [2], the CAL stood at 9.0 ± 0.5 mg/dL, the CHOL is listed as 97.8 ± 12.8 mg/dL, the CRE was determined as 0.3 ± 0.1 mg/dL and the GLU is reported as 102.5 ± 29.2 mg/dL. In series [2], this compound had a PHOS of 9.5 ± 0.8 mg/dL, a TBIL of 0.4 ± 0.0 mg/dL, a TPR of 5.0 ± 0.4 g/dL and a TRG of 91.5 ± 21.2 mg/dL. The same compound returned a tumor inhibition in series [3] of 70%. Besides, in series [4] (H&E), the kidney histology entry was “glomerular swelling” and the liver histology result is reported as “prominent hepatic steatosis”. In addition, the body weight entry in series [4] (compared to saline) is listed as “cyclical decrease in body weight”. The pKa in series [5] was 8.2. Besides, the “TUNEL-positive cells in tumor tissue” value in series [6] was around 13%. Besides, the “IC50 (MTS)” value in series [7] worked out at 53.0 µg/mL.
Regarding `CCOc1ccc(-c2nc3ccc(-c4nc5ccc(N6CCN(C)CC6)cc5[nH]4)cc3[nH]2)cc1` [Hoechst 33342], the pKa in series [5] is 11.9.
Take `COc1cc2c(cc1OC)CN(CCc1ccc(NC(=O)c3cc(OC)c(OC)cc3NC(=O)c3cnc4ccccc4c3)cc1)CC2` [Tariquidar]: in series [8], the “effect of co-administration with free Dox on drug sensitivity” value was “partially restores drug sensitivity”.
